From patent publication US20240131034A1, “METHODS OF TREATING STAPHYLOCOCCUS AUREUS BACTEREMIA INFECTIONS” (Basilea Pharmaceutica International AG, Allschwil, priority 2022, published 2024)
Entries after “also recorded” stand apart in the source; their conditions may differ.

Legend:
[1] = test system: acute bacterial skin and soft tissue infections; settings: TARGET Phase 3; Overcash et al.; cited from earlier work
[2] = test system: MSSA; assay: MIC of baseline blood S. aureus isolates: MSSA; type: cell-based, Staphylococcus aureus; settings: MSSA samples
Excerpt: (§1) The distribution of ceftobiprole, daptomycin, and aztreonam MICs, including MIC50, MIC90, and MIC range, for blood S. aureus, MRSA, and MSSA, was tabulated for the mITT and CE populations. The shifts in ceftobiprole, daptomycin, and aztreonam MIC results from baseline to PTE, and the shifts in ceftobiprole, daptomycin, and aztreonam MIC results from baseline to the maximum value post-baseline by baseline infecting organisms (i.e., pathogens), were presented overall and by geographical region in the mITT and CE populations.

[3] = test system: S. aureus; assay: On-treatment MIC shifts and MIC vs clinical failure, blood S. aureus; type: cell-based, Staphylococcus aureus; settings: MIC of the drug received, daptomycin: three patients (two MSSA, one MRSA)
Excerpt: as §1

[4] = prolonged (>4 weeks) ceftobiprole treatment; cited from earlier work
[5] = type: in vivo
Description: Safety population: The safety population consisted of all randomized patients who received any amount/dose of study medication. Patients in the safety population were analyzed according to the first medication actually received.
Ceftohiprole 500 mg (as 667 mg ceftobiprole medocaril) was administered as a 2-hour intravenous (i.v.) infusion every 6 hours in the first 8 days, and every 8 hours from Day 9 onwards (with dose and/or schedule adjusted in patients with renal impairment). Daptomycin weight-based at 6 mg/kg (up to 10 mg/kg in accordance with institutional standards) administered as 0.5-hour i.v. infusion every 24 hours (with schedule adjusted in patients with renal impairment). Optional aztreonam 1000 mg fixed dose administered as 0.5-hour i.v. infusion every 24 hours (with dose adjusted in patients with renal impairment). The target treatment duration in Part I was 21-28 days of study medication, with a maximum treatment duration of 28 days. The maximum treatment duration In Part 2 was 42 days.
• 1. All-cause mortality assessed at Day 70 (PTE visit) in the mITT population. • 2. Microbiological cradication assessed by the DRC at Day 70 (PTE visit) in the mITT population. • 3. The overall success rate in the ITT, mITT, and CE populations; • a) at the BOT and PTE (ITT and CE populations only) visits • b) at the EOT and PTE visits, for RIE vs non-IE SAB • c) at the EOT and PTE visits, by renal-function status • 4. Development of new metastatic foci or other complications of SAB after Day 7 assessed in the mITT and CE populations. • 5. Time to S. aureus bloodstream clearance, defined as the elapsed time (days) from randomization to bloodstream clearance, with bloodstream clearance defined as the occurrence of two consecutive study days with blood-culture-negative assessments for S. aureus. • 6. Safety and tolerability based on incidence, type, severity, and relationship to study medication of AEs; and changes in laboratory tests • 7. Pharmacokinetics of ceftobiprole in the PK population

[6] = test system: MRSA; assay: MIC of baseline blood S. aureus isolates: MRSA; type: cell-based, Staphylococcus aureus; settings: MRSA samples
Excerpt: as §1

[7] = test system: Staphylococcus aureus bacteremia (SAB); assay: Phase 3 study of ceftobiprole vs daptomycin ± aztreonam in complicated SAB (NCT03138733): efficacy; type: in vivo, human; settings: for DRC-assessed SAB relapses: 4 patients on daptomycin (2 MSSA, 2 MRSA), 2 patients on ceftobiprole (all MSSA); for Overall success rate in patients with high vancomycin MICs of 2-8 mg/L: 16 patients (8 MRSA, 8 MSSA), 7/8 vs 4/8; for Adjusted difference ceftobiprole − daptomycin ± aztreonam (95% CI): DRC overall success at PTE (mITT): Cochran-Mantel-Haenszel weights, adjusted for dialysis status and prior antibacterial treatment use; for Non-inferiority for overall success at PTE (70 days post-randomization): pre-specified −15% non-inferiority margin
[8] = mITT, Cochran-Mantel-Haenszel adjusted
[9] = mITT, Cochran-Mantel-Haenszel adjusted, listed as ceftobiprole
[10] = mITT, S. aureus (overall), bloodstream clearance = two consecutive study days with negative blood culture

In the case of `Nc1nc(/C(=N/O)C(=O)N[C@@H]2C(=O)N3C(C(=O)O)=C(/C=C4\CCN([C@@H]5CCNC5)C4=O)CS[C@H]23)ns1` [Ceftobiprole], the “Early clinical response and investigator-assessed clinical success vs vancomycin and aztreonam” value [1] is given as “non-inferior to vancomycin and aztreonam”, the “Isolates at MIC 0.25 mg/L” value [2] is given as 51% and the “Isolates at MIC 0.5 mg/L” value [2] is given as 48%. The “Isolates at MIC either 0.25 mg/L or 0.5 mg/L” value [2] was 99%, the “On-treatment increases in MICs by ≥four-fold, patients” value ([3]; listed as cefobiprole) was “No on-treatment increases” and the Risk of convulsions [4] was “potential for an increased risk of convulsions”. The “AE anemia, patients” value ([5]; human, in vivo) was 11.0%, the “AE gamma-glutamyl-transferase increased, patients” value ([5]; human, in vivo) was 6.3% and the “AE nausea, patients” value ([5]; human, in vivo) was 10.5%. For the same molecule, the “Adverse events leading to discontinuation” value ([5]; human, in vivo) was 9.4%, the “Drug-related AEs leading to discontinuation” value ([5]; human, in vivo) was 4.7% and the “Drug-related AEs leading to discontinuation: allergy-type events” value ([5]; human, in vivo) was 4 n. The “Drug-related AEs leading to discontinuation: hepatic function test abnormalities” value ([5]; human, in vivo) was 1 n, the “Drug-related AEs leading to discontinuation: leukopenia” value ([5]; human, in vivo) was 1 n and the “Drug-related AEs leading to discontinuation: nausea/vomiting” value ([5]; human, in vivo) was 4 n. For the same molecule, the “Drug-related AEs leading to discontinuation: seizure” value ([5]; human, in vivo) was 1 n, the “Patients who experienced a serious adverse event (SAE)” value ([5]; human, in vivo) was 18,8% and the “Patients who experienced a severe AE” value ([5]; human, in vivo) was 15.2%. For the same molecule, the “Patients who experienced an AE” value ([5]; human, in vivo) was 63.4%, the “Study treatment discontinuation, reason non-related AE” value ([5]; human, in vivo) was 3.2% and the “Study treatment discontinuation, reason related AE” value ([5]; human, in vivo) was 4.8%. The “Study-drug-related AEs” value ([5]; human, in vivo) was 13.1%, the “Study discontinuation, reason death” value ([5]; mITT population) was 9.0% and the “Study treatment discontinuation, reason death” value ([5]; mITT population) was 4.8%. The “Isolates at MIC 0.5 mg/L” value [6] was 14%, the “Isolates at MIC 1 mg/L” value [6] was 58% and the “Isolates at MIC 2 mg/L” value [6] was 28%. For the same molecule, the “DRC-assessed SAB relapses” value [7] was 1.1%, the “Overall success rate in patients with high vancomycin MICs of 2-8 mg/L” value [7] was 87.5% and the “Adjusted difference ceftobiprole − daptomycin ± aztreonam (95% CI): DRC overall success at PTE (CE)” value ([7]; CE, Cochran-Mantel-Haenszel adjusted) was 0.6% (−8.3. 9.5). The “Overall success at the PTE visits, patients with MRSA of USA clonal strain type” value ([7]; MRSA isolates typed by MLST, spa and SCCmec, 16/21 vs 16/23) was 76.2%, the “Investigator-assessed overall success at the PTE visit” value ([7]; mITT) was 73.5% and the “Patients who died through the PTE visit” value ([7]; mITT) was 9.0%. For the same molecule, the “Patients who experienced new metastatic foci or other complications of SAB after Day 7” value ([7]; mITT) was 5.8%, the “Patients with microbiological eradication at the PTE visit” value ([7]; mITT) was 82.0% and the “Adjusted proportion difference: investigator-assessed overall success at PTE” value ([7]; mITT, 95% CI: −4.2, 13.5) was 4.7%. For the same molecule, the “Responders (overall success at the PTE visit)” value ([7]; mITT, 70 days post-randomization) was 69.8%, the “Adjusted difference ceftobiprole − daptomycin ± aztreonam (95% CI): ACM through PTE” value [7, 8] was −0.5% (−6.2, 5.2) and the “Adjusted difference ceftobiprole − daptomycin ± aztreonam (95% CI): death due to SAB (DRC)” value [7, 8] was 0.4% (−3.2, 4.0). The “Adjusted difference ceftobiprole − daptomycin ± aztreonam (95% CI): microbiological response at PTE” value [7, 8] was 5.1% (−2.9, 13.0), the “Adjusted difference ceftobiprole − daptomycin ± aztreonam (95% CI): new metastatic foci or other complications of SAB after Day 7” value [7, 8] was 0.1% (−4.6, 4.8) and the “Adjusted difference ceftobiprole − daptomycin ± aztreonam (95% CI): ACM through PTE” value [7, 9] was −0.5%. For the same molecule, the “Adjusted difference ceftobiprole − daptomycin ± aztreonam (95% CI): microbiological response at PTE” value [7, 9] was 5.1%, the “Adjusted difference ceftobiprole − daptomycin ± aztreonam (95% CI): new metastatic foci or other complications of SAB after Day 7” value [7, 9] was 0.1% and the “Adjusted difference ceftobiprole − daptomycin ± aztreonam (95% CI): DRC overall success at PTE (mITT)” value ([7]; mITT) was 2.0% (−7.1, 11.1). The “Adjusted difference ceftobiprole − daptomycin ± aztreonam (95% CI): DRC overall success at PTE (mITT)” value ([7]; mITT, listed as ceftobiprole) was 2.0%, the “Median time (days) clearance (95% CI)” value ([7]; mITT, MRSA) was 5 days and the “Patients with clearance achieved” value ([7]; mITT, MRSA) was 93.3%. The “Median time (days) clearance (95% CI)” value ([7]; mITT, MSSA) was 3 days, the “Patients with clearance achieved” value ([7]; mITT, MSSA) was 94.3% and the “Median time (days) clearance (95% CI)” value ([7]; mITT, S. aureus (overall)) was 4 days. The “Patients with clearance achieved” value [7, 10] was 94.2%, the “Time (days) to S. aureus bloodstream clearance, Median (95% CI)” value ([7]; mITT, Table 1) was 4 (3, 5) days and the “Non-inferiority for overall success at PTE (70 days post-randomization)” value ([7]; mITT) was “non-inferiority of ceftobiprole”. The “Non-inferiority for overall success at PTE (70 days post-randomization)” value ([7]; mITT, listed as ceftobiprole) was “non-inferiority of ceftobiprole to daptomycin±aztreonam; also recorded: non-inferior to daptomycin”, the “Response rate (primary endpoint), non-white patients” value ([7]; subgroup analysis, 5/10 vs 5/6) was 50.0% and the “Response rate (primary endpoint), age group of 18-34 years” value ([7]; subgroup analysis, 17/20 vs 11/19) was 85.0%.

For `CCCCCCCCCC(=O)N[C@@H](Cc1c[nH]c2ccccc12)C(=O)N[C@H](CC(N)=O)C(=O)N[C@@H](CC(=O)O)C(=O)N[C@@H]1C(=O)NCC(=O)N[C@@H](CCCN)C(=O)N[C@@H](CC(=O)O)C(=O)N[C@H](C)C(=O)N[C@@H](CC(=O)O)C(=O)NCC(=O)N[C@H](CO)C(=O)N[C@@H]([C@H](C)CC(=O)O)C(=O)N[C@@H](CC(=O)c2ccccc2N)C(=O)O[C@@H]1C` [Daptomycin, reference compound], the “Isolates at MIC 0.25 mg/L” value [2] was 28%, the “Isolates at MIC 0.5 mg/L” value [2] was 71% and the “Isolates at MIC either 0.25 mg/L or 0.5 mg/L” value [2] was 99%. For the same molecule, the “On-treatment increases in MICs by ≥four-fold, patients” value [3] was 1.5%, the “Drug-related AEs leading to discontinuation: cosinophilic pneumonia” value ([5]; Safety population) was 2 n and the “Drug-related AEs leading to discontinuation: myopathy” value ([5]; Safety population) was 1 n. The “Tolerability / safety in patients with complicated SAB” value ([5]; in vivo) was “well tolerated”, the “Isolates at MIC 0.25 mg/L” value [6] was 22% and the “Isolates at MIC 0.5 mg/L” value [6] was 76%. For the same molecule, the “Isolates at MIC 1 mg/L” value [6] was 2%, the “DRC-assessed SAB relapses” value [7] was 3.0% and the “Overall success rate in patients with high vancomycin MICs of 2-8 mg/L” value [7] was 50.0%. For the same molecule, the “Median time (days) clearance (95% CI)” value ([7]; mITT, MRSA) was 5 days, the “Patients with clearance achieved” value ([7]; mITT, MRSA) was 87.8% and the “Median time (days) clearance (95% CI)” value ([7]; mITT, MSSA) was 4 days. For the same molecule, the “Patients with clearance achieved” value ([7]; mITT, MSSA) was 95.2%, the “Median time (days) clearance (95% CI)” value ([7]; mITT, S. aureus (overall)) was 4 days and the “Patients with clearance achieved” value [7, 10] was 92.9%.
